In this test the target is T1, fused G6PD::6PGL protein (Giardia duodenalis, UniProt A8BWM5).
T1 construct: gene GL50803_008682; natural fusion of G6PD and 6PGL domains in one open reading frame; pET-3a/g6pd::6pgl in E. coli BL21(DE3)Δzwf::kan^r; 2',5'-ADP Sepharose and Sephacryl 200; dimer
T1 sequence (A8BWM5 1-742): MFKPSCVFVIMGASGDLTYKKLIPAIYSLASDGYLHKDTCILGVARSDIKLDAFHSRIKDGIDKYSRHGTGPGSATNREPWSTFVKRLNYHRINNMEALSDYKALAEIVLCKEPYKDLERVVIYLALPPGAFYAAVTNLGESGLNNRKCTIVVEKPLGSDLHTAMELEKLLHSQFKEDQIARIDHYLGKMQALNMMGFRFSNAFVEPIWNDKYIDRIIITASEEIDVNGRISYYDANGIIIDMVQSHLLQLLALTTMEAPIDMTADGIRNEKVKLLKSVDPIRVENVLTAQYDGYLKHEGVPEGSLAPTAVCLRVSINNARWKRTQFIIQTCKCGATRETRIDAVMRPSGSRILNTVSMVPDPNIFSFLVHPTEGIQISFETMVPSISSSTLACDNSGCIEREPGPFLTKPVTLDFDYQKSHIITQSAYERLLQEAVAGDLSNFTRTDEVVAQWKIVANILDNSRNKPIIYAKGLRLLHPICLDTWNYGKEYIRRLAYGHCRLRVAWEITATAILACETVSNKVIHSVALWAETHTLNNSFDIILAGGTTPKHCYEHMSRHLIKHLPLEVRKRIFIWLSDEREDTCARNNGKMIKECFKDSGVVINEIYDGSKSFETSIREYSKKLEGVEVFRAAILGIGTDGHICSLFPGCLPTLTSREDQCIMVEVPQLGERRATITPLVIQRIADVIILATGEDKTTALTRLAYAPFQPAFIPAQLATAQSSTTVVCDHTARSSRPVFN
Briefly: intrinsic tryptophan fluorescence quenching titration. The class given is binding.

Turning to `NC(=O)c1ccc[n+]([C@@H]2O[C@H](COP(=O)(O)OP(=O)(O)OC[C@H]3O[C@@H](n4cnc5c(N)ncnc54)[C@H](OP(=O)(O)O)[C@@H]3O)[C@@H](O)[C@H]2O)c1` [NADP^+], binding was characterised by a dissociation constant (Kd) of 63.2 nM.

By Kd is commonly meant the concentration at which binding is half-saturated.

(Values after PMC7022596, “Identification of the NADP^+ Structural Binding Site and Coenzyme Effect on the Fused G6PD::6PGL Protein from Giardia lamblia” (Biomolecules, 2019).)
